Publication PMC10325900, “A conserved motif in the disordered linker of human MLH1 is vital for DNA mismatch repair and its function is diminished by a cancer family mutation” (Nucleic Acids Research, 2023)
Entries after “also recorded” stand apart in the source; their conditions may differ. No end group written: not given here.

Target: T1, MLH1-ΔConMot-PMS2 (Homo sapiens, UniProt P40692+P54278, DEL377-396)
T1 construct: The pcDNA3 expression vector containing the entire open reading frame of human MLH1; expressed in transfected cells; host or cells: HEK293T (MLH1-deficient), transiently co-transfected
T1 sequence (P40692 with tags, fused parts or gaps DEL377-396): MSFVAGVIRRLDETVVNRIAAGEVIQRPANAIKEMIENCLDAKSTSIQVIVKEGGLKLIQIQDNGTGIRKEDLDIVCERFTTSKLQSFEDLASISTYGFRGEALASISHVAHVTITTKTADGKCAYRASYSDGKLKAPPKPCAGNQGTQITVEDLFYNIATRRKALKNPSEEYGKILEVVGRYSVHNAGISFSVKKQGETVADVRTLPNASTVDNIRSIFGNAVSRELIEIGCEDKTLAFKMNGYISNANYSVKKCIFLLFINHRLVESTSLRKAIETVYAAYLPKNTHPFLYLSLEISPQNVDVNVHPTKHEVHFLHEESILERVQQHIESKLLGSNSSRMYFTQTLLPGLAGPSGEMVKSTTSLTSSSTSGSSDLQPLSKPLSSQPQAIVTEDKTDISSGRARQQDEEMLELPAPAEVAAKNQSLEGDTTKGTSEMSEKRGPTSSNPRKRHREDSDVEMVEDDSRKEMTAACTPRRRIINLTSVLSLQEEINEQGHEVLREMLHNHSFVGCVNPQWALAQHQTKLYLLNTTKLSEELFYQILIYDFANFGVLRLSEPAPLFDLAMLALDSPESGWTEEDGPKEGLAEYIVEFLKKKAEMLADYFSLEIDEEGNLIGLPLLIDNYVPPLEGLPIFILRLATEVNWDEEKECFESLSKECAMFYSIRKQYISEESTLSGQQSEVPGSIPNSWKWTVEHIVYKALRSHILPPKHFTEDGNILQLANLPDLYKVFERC
T1 sequence (P54278 1-862 partner): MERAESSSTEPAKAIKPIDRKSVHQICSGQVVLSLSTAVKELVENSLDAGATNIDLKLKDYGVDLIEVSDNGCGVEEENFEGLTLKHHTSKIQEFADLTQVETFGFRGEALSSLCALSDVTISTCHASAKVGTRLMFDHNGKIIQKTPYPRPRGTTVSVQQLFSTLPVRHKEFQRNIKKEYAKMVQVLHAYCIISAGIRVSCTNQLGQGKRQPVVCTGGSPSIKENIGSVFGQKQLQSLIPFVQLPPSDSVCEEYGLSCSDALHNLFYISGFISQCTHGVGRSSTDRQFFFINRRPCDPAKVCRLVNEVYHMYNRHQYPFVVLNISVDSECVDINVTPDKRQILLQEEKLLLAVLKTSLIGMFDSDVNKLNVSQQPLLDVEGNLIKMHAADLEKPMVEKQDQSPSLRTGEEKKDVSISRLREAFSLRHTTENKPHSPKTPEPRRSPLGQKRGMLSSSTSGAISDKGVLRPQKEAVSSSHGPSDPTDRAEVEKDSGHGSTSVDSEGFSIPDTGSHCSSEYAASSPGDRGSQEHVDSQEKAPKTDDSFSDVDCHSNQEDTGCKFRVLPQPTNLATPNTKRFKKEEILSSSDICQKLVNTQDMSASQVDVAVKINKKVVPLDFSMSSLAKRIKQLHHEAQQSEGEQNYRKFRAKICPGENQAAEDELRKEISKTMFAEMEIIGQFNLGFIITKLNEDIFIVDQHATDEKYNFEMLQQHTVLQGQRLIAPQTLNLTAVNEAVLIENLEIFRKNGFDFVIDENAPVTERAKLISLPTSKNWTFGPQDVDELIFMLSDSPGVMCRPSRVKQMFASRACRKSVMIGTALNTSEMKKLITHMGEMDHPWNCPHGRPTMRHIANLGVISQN
Assay: DNA mismatch repair (MMR) complementation assay with peptide, MLH1-ΔConMot variant
Type: biochemical
Method: Mismatch repair activity was assessed as described in detail before ([79],[81]) (Supplementary Figure S3). […] Mismatched DNA plasmid substrate (Supplementary Figure S3) prepared according to previously published procedures ([81–83]) was added, and reactions in a final volume of 25 μl were incubated at 37°C for 15 min. Repair efficiency was scored by purifying the mismatched DNA plasmid from the reaction and assessing the fraction of homoduplex sequence by restriction digestion of the mismatched site using EcoRV. The substrate was additionally linearized with AseI.
For complementation assays with peptide, the indicated peptide(s) were used at stock concentrations of 50 or 500 μM in HEPES–KOH 20 mM pH 7.6 and supplemented to the MMR reactions.
Figure 4. Reaction of DNA mismatch repair to addition of ConMot peptide. (A) Nuclear extract of MLH1-proficient HEK293 cells was used for performing the DNA mismatch repair reaction. Four reactions were undertaken, with two reactions supplemented with either 7.5 μM or 75 μM ConMot-32 peptide. A negative control reaction was performed by omitting the 37°C repair incubation. (B) MMR reactions were performed with nuclear extract of MLH1-deficient HEK293T cells supplemented with extract of cells transfected either with wildtype MLH1-PMS2 (positive control) or with MLH1-ΔConMot-PMS2. To these MMR reactions, different peptides were added at a concentration of 75 μM: A ConMot-32 peptide (A), a Scramble-32 peptide (B) in which the conserved ConMot sequence is scrambled, and a short ConMot-20 peptide (C) that only contains the twenty highly conserved ConMot residues. The peptide sequences are given below the gel image. (C) The concentration-dependence of the MMR-activating effect of the ConMot-32 peptide observed in (B) was measured over a concentration range from 1–75 μM. (D) Theoretical binding curves of a ligand (peptide) to a protein were calculated for dissociation constants (KD) of 1, 5 and 10 μM for a protein concentration as present for MLH1-PMS2 in the MMR assay reactions (see also Supplementary Figure S3). Into this diagram, the average MMR activities (and standard deviations) measured in >3 of the experiment exemplarily shown in C were introduced as bars at ConMot-32 peptide concentrations of 1, 2.5, 7.5, 18 and 75 μM.
Second, we used extract of the repair-deficient cell line HEK293T supplemented with either wildtype MutLα (MLH1-PMS2) or the ΔConMot deletion variant, corresponding to experiment shown in Figure 2B. In this experiment, we again added ConMot peptide.
We investigated the effect of the ConMot peptide more closely by titrating the required peptide concentrations for activation. We determined that the mismatch repair reactions performed in this study contained approximately 280 fmol MLH1 (Supplementary Figure S4A and B), which is in good agreement with previous quantifications of MLH1-PMS2 in cells and extracts ([96]). […] Dissociation constants (KD) for peptides to proteins are typically in the range of 1–10 μM ([97]). We compared the measured concentration-dependent MMR activities with theoretical binding curves of (peptide) ligands to (protein) substrates for KD values of 1, 5 and 10 μM (Supplementary Figure S4C) at the determined MLH1 concentration. […] It is therefore plausible that a binding reaction of the ConMot peptide (to a protein) underlies the restauration of MMR activity. […]
Deletion C on M ot (∆Co nMot) c.1129_1188del CTGCAGCCTCTGAGCAAA […]
Del et i on comp are (∆Compare) c.1221_1280del […] ACTGGACAGGGGTTTGCT
Scramble c.1147_1160delinsGAC ggtacgtTCCCGGGAACAGAAGCT atagtgtcCTGGTGGGCATAGACCT
p.(M383_D387delinsDTMVR) ACTATGGTAC G T TATC
ConMot hy bri d gcataTCTGCAGCCTCTGAGCAA acagg[…]
Supplementary Table 1: Analyzed variant inf ormation.
Variant descriptions confer to HGVS format and refer to the MLH1 reference cDNA (NM_000249.4) […]

[1] = ConMot-32, concentration range 1–75 μM, approximately 280 fmol MLH1 (11.1 nM), 37°C, 15 min, >3 experiments

SGSSDKVYAHQMVRTDSREQKLDAFLQPLSKP [ConMot-32]
peptide concentration at which almost complete activation was achieved (MMR) [1]: 75 µM
peptide concentration at which increase in MMR activity became detectable [1]: 1 µM
EC50 (ConMot-32, concentration range 1–75 μM, approximately 280 fmol MLH1 (11.1 nM), 37°C, 15 min, >3 experiments, read-out: peptide concentration at which 50% activation was achieved (MMR)): 7.5 µM
effect of peptide on MMR (summary in Supplementary Table 2) (molar ratio 0-860-2300-8600 to hMLH1-PMS2, Tris-HCl pH 7.5, 5 mM Mg2+, 1.5 mM ATP): activating
restoration of DNA mismatch repair activity of the ΔConMot variant (peptide 75 μM (Figure 4B), HEK293T nuclear extract 50 μg + 5 μg transfected extract, 25 μl, 37°C, 15 min, EcoRV/AseI digestion, agarose gel, listed as ConMot-peptide): could be overcome; also recorded: possible to overcome the MMR-deficiency
